# Source: patent publication US20100160370A1, “METHOD OF TREATMENT AND PHARMACEUTICAL COMPOSITIONS” (Gilead Sciences, Inc., priority 2008, published 2010)
# How the values were obtained:
# Format in all cases: in vivo
# MCP-1 = test: Bleomycin rat model: MCP-1 level in bronchoalveolar lavage fluid (Luminex/Procarta cytokine assay); conditions: for MCP-1 concentration (Average): oral gavage twice a day, BAL
# From the text: (§1) The bleomycin rat model was used in this study to evaluate (R)-N-((2S,3S)-2-(fluoromethyl)-2-hydroxy-5-oxo-tetrahydrofuran-3-yl)-5-isopropyl-3-(isoquinolin-1-yl)-4,5-dihydroisoxazole-5-carboxamide as a possible therapeutic drug for the treatment of idiopathic pulmonary fibrosis (IPF) and other fibrotic lung diseases. The bleomycin animal model of IPF is an art-recognized model for evaluating potentially therapeutic drugs for the treatment of IPF (see, e.g., F. Chua et al., Pulmonary Fibrosis, Searching for Model Answers, Am. J. Respir. Cell. Mol. Biol., 33:9-13 (2005); A. Moeller et al., The bleomycin animal model: A useful tool to investigate treatment options for idiopathic pulmonary fibrosis, International Journal of Biochemistry and Cell Biology, 40: 362-382 (2008)).
# (§2) The rats receiving the test compound were gavaged twice a day from day zero (the day of bleomycin administration) through the day prior to necropsy. On days 14 and 28 the designated rats were euthanized with a pentobarbital-based solution, the chest cavity was opened and examined for gross pathology. The right lung was removed, canulated, and lavaged for determination of white blood cell counts. The lavaged tissue was flash frozen and analyzed for collagen content by measuring the amount of collagen. The left lung was fixed for histopathology. Homogenates from the lungs were analyzed for cytokines.
# (§3) Intratracheal administration of bleomycin induces a two-stage response in the lungs of rats. The first stage is an inflammatory response which peaks at about 14 days after bleomycin administration, and the second stage is a fibrotic response that is apparent by 28 days after bleomycin administration. The inflammation markers that were measured in this study were the influx of leukocytes (neutrophils, macrophages and lymphocytes) into the airways, and the induction of the cytokines MCP-1 and MCP-3 (where MCP stands for Monocyte Chemoattractant Protein). Tables 2, 3, 4 and 5 show the total cell count, neutrophil count, macrophage count and the lymphocyte count, respectively, from the treated rats at 14 days and 28 days (Values for cell numbers are ×10^6). The abbreviation SEM stands for Standard Error of the Mean. In Tables 2 thru 8 the t-test was an unpaired, two-tailed, t-test performed using a GraphPad Prism version 5.01 for Windows (GraphPad Software, San Diego, Calif. USA).
# (§4) Additionally, MCP-1 and MCP-3 levels in the rat Bronchoalveolar Lavage Fluid (BAL) were measured using Luminex xMap Technology CS1000 (Austin, Tex.) and a Procarta Cytokine Assay Kit (rat 15-plex) manufactured by Panomics, Inc. (Fremont, Calif.) that included analytes for: IL-1α, IL-1β, IL-6, TNFα, KC, MCP-1, MCP-3, MIP-1α, RANTES, VEGF, TGFb, IL-4, IL-10, IFNg, and GM-CSF. Three replicate assay wells (n=3) were analyzed for each experimental sample following the manufacturer's instructions. Quantitation of each analyte was determined against standard curves using MiraiBio's (Alameda, Calif.) Masterplex QT v 3.0 software. For all samples, background signals in the absence of BAL were determined and subtracted from signals obtained in the presence of BAL to obtain the net signal. Statistical significance of biological studies was tested with a two-tailed Student t-test. Tables 6 and 7 show the concentrations of cytokines MCP-1 and MCP-3, respectively, in the airways of the treated rats, expressed in pg/mL.
# MCP-3 = test: Bleomycin rat model: MCP-3 level in bronchoalveolar lavage fluid (Luminex/Procarta cytokine assay); conditions: for MCP-3 concentration (Average): oral gavage twice a day, BAL
# From the text: as §1, §2, §3, §4
# collagen = test: Bleomycin rat model: lung collagen deposition (pepsin digest, SDS-PAGE densitometry); design: Collagen Response (Average collagen concentration): unit not given here; conditions: for Collagen Response (Average collagen concentration): oral gavage twice a day, 28 day, lung tissue
# From the text: The bleomycin rat model was used in this study to evaluate (R)-N-((2S,3S)-2-(fluoromethyl)-2-hydroxy-5-oxo-tetrahydrofuran-3-yl)-5-isopropyl-3-(isoquinolin-1-yl)-4,5-dihydroisoxazole-5-carboxamide as a possible therapeutic drug for the treatment of idiopathic pulmonary fibrosis (IPF) and other fibrotic lung diseases. The bleomycin animal model of IPF is an art-recognized model for evaluating potentially therapeutic drugs for the treatment of IPF (see, e.g., F. Chua et al., Pulmonary Fibrosis, Searching for Model Answers, Am. J. Respir. Cell. Mol. Biol., 33:9-13 (2005); A. Moeller et al., The bleomycin animal model: A useful tool to investigate treatment options for idiopathic pulmonary fibrosis, International Journal of Biochemistry and Cell Biology, 40: 362-382 (2008)). The rats receiving the test compound were gavaged twice a day from day zero (the day of bleomycin administration) through the day prior to necropsy. On days 14 and 28 the designated rats were euthanized with a pentobarbital-based solution, the chest cavity was opened and examined for gross pathology. The right lung was removed, canulated, and lavaged for determination of white blood cell counts. The lavaged tissue was flash frozen and analyzed for collagen content by measuring the amount of collagen. The left lung was fixed for histopathology. Homogenates from the lungs were analyzed for cytokines. […] Gels were then stained with Coomassie Blue and stained bands migrating coincident with type I collagen standards were compared by densitometry to the Coomassie stained collagen standards in order to quantitate collagen content. Under the reducing conditions employed in the analysis, the quantitated lung sample gel bands represented the alpha 1 and 2 chains of type I collagen and the alpha 1 chain of type Ill collagen. Blots were scanned with a BioRad GS-800 Scanner and their density was quantitated using “Quantity One” computer software from BioRad. Results were averaged for each treatment group and expressed as micrograms of collagen/mg of lung tissue.
# bleomycin rat model = test: Bleomycin rat model: white blood cell counts in lung lavage; conditions: for Lymphocyte Count (Average) / Macrophage Count (Average) / Neutrophil Count (Average) / Total Cell Count (Average): oral gavage twice a day, lung lavage
# From the text: The bleomycin rat model was used in this study to evaluate (R)-N-((2S,3S)-2-(fluoromethyl)-2-hydroxy-5-oxo-tetrahydrofuran-3-yl)-5-isopropyl-3-(isoquinolin-1-yl)-4,5-dihydroisoxazole-5-carboxamide as a possible therapeutic drug for the treatment of idiopathic pulmonary fibrosis (IPF) and other fibrotic lung diseases. The bleomycin animal model of IPF is an art-recognized model for evaluating potentially therapeutic drugs for the treatment of IPF (see, e.g., F. Chua et al., Pulmonary Fibrosis, Searching for Model Answers, Am. J. Respir. Cell. Mol. Biol., 33:9-13 (2005); A. Moeller et al., The bleomycin animal model: A useful tool to investigate treatment options for idiopathic pulmonary fibrosis, International Journal of Biochemistry and Cell Biology, 40: 362-382 (2008)). In this Example, (R)-N-((2S,3S)-2-(fluoromethyl)-2-hydroxy-5-oxo-tetrahydrofuran-3-yl)-5-isopropyl-3-(isoquinolin-1-yl)-4,5-dihydroisoxazole-5-carboxamide is referred to as the “test compound” for ease of reference. […] The abbreviations used in Table 1 are Bleo (bleomycin), IT (intratracheal), mg/kg (milligram per kilogram), N (number) and n/a (not applicable). [table] The rats receiving the test compound were gavaged twice a day from day zero (the day of bleomycin administration) through the day prior to necropsy. On days 14 and 28 the designated rats were euthanized with a pentobarbital-based solution, the chest cavity was opened and examined for gross pathology. The right lung was removed, canulated, and lavaged for determination of white blood cell counts. The lavaged tissue was flash frozen and analyzed for collagen content by measuring the amount of collagen. The left lung was fixed for histopathology. Homogenates from the lungs were analyzed for cytokines. Intratracheal administration of bleomycin induces a two-stage response in the lungs of rats. The first stage is an inflammatory response which peaks at about 14 days after bleomycin administration, and the second stage is a fibrotic response that is apparent by 28 days after bleomycin administration. The inflammation markers that were measured in this study were the influx of leukocytes (neutrophils, macrophages and lymphocytes) into the airways, and the induction of the cytokines MCP-1 and MCP-3 (where MCP stands for Monocyte Chemoattractant Protein). Tables 2, 3, 4 and 5 show the total cell count, neutrophil count, macrophage count and the lymphocyte count, respectively, from the treated rats at 14 days and 28 days (Values for cell numbers are ×10^6). The abbreviation SEM stands for Standard Error of the Mean. In Tables 2 thru 8 the t-test was an unpaired, two-tailed, t-test performed using a GraphPad Prism version 5.01 for Windows (GraphPad Software, San Diego, Calif. USA).
# [1] = Bleomycin IT 3.5 mg/kg + 10 mg/Kg test compound, 14 day
# [2] = Bleomycin IT 3.5 mg/kg + 10 mg/Kg test compound, 28 day
# [3] = Bleomycin IT 3.5 mg/kg + 30 mg/Kg test compound, 14 day
# [4] = Bleomycin IT 3.5 mg/kg + 30 mg/Kg test compound, 28 day
# [5] = bleomycin-treated rats, result in words
# [6] = orally administered, bleomycin-treated rats, result in words
smiles,measurement,setting,value
"CC(C)[C@@]1(C(=O)N[C@H]2CC(=O)O[C@]2(O)CF)CC(c2nccc3ccccc23)=NO1 [Test Compound, (R)-N-((2S,3S)-2-(fluoromethyl)-2-hydroxy-5-oxo-tetrahydrofuran-3-yl)-5-isopropyl-3-(isoquinolin-1-yl)-4,5-dihydroisoxazole-5-carboxamide]",MCP-1 concentration (Average),MCP-1; [1],66.122 pg/mL
same,MCP-1 concentration (Average),MCP-1; [2],12.800 pg/mL
same,MCP-1 concentration (Average),MCP-1; [3],13.838 pg/mL
same,MCP-1 concentration (Average),MCP-1; [4],11.844 pg/mL
same,production of MCP-1 in the lungs,MCP-1; [5],inhibited the production
same,MCP-3 concentration (Average),MCP-3; [1],37.987 pg/mL
same,MCP-3 concentration (Average),MCP-3; [2],7.075 pg/mL
same,MCP-3 concentration (Average),MCP-3; [3],5.668 pg/mL
same,MCP-3 concentration (Average),MCP-3; [4],6.497 pg/mL
same,production of MCP-3 in the lungs,MCP-3; [5],inhibited the production
same,Collagen Response (Average collagen concentration),collagen; Bleomycin IT 3.5 mg/kg + 10 mg/Kg test compound,2.353
same,Collagen Response (Average collagen concentration),collagen; Bleomycin IT 3.5 mg/kg + 30 mg/Kg test compound,3.891
same,deposition of collagen during the fibrotic phase of the bleomycin response,collagen; [6],inhibited the deposition of collagen
same,Lymphocyte Count (Average),bleomycin rat model; [1],0.002 ×10^6
same,Macrophage Count (Average),bleomycin rat model; [1],0.415 ×10^6
same,Neutrophil Count (Average),bleomycin rat model; [1],0.006 ×10^6
same,Total Cell Count (Average),bleomycin rat model; [1],1.988 ×10^6
same,Lymphocyte Count (Average),bleomycin rat model; [2],0.007 ×10^6
same,Macrophage Count (Average),bleomycin rat model; [2],0.442 ×10^6
same,Neutrophil Count (Average),bleomycin rat model; [2],0.012 ×10^6
same,Total Cell Count (Average),bleomycin rat model; [2],2.276 ×10^6
same,Lymphocyte Count (Average),bleomycin rat model; [3],0.003 ×10^6
same,Macrophage Count (Average),bleomycin rat model; [3],0.285 ×10^6
same,Neutrophil Count (Average),bleomycin rat model; [3],0.005 ×10^6
same,Total Cell Count (Average),bleomycin rat model; [3],1.482 ×10^6
same,Lymphocyte Count (Average),bleomycin rat model; [4],0.004 ×10^6
same,Macrophage Count (Average),bleomycin rat model; [4],0.476 ×10^6
same,Neutrophil Count (Average),bleomycin rat model; [4],0.008 ×10^6
same,Total Cell Count (Average),bleomycin rat model; [4],2.207 ×10^6
same,influx of lymphocytes into the airways,bleomycin rat model; [6],inhibited the influx
same,influx of macrophages into the airways,bleomycin rat model; [6],inhibited the influx
same,influx of neutrophils into the airways,bleomycin rat model; [6],inhibited the influx
